Measured values published in ChEMBL document CHEMBL5506022, “Discovery of Novel Dual Inhibitors Targeting Mutant IDH1 and NAMPT for the Treatment of Glioma with IDH1Mutation” (J Med Chem, 2024).
The source made the active and inactive calls. No cut-off for these calls is given here.

Tests used:
[1] = target: Isocitrate dehydrogenase [NADP] cytoplasmic (Homo sapiens, UniProt O75874, R132C); assay: Inhibition of recombinant IDH1 R132C mutant (unknown origin) using alpha-ketoglutarate as substrate incubated for 60 mins in presence of NADPH by fluorescence microplate reader
Isocitrate dehydrogenase [NADP] cytoplasmic (Homo sapiens, UniProt O75874, R132C), sequence (O75874 2-414 R132C limits assumed): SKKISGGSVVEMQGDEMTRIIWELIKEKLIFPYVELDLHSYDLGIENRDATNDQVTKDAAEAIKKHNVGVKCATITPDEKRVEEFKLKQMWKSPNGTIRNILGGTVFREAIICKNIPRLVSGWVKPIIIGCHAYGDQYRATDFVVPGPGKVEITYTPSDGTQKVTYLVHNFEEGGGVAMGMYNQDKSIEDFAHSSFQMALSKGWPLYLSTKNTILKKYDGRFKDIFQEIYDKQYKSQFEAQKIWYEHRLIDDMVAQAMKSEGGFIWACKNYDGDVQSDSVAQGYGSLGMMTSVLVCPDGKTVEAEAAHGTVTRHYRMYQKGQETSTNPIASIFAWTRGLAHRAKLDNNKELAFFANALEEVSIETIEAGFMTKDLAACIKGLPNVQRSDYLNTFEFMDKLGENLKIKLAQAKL

[2] = target: Isocitrate dehydrogenase [NADP] cytoplasmic (Homo sapiens, UniProt O75874); assay: Inhibition of wildtype IDH1 (unknown origin) using DL-isocitrate as substrate incubated for 60 mins in presence of NADP by fluorescence microplate reader
Isocitrate dehydrogenase [NADP] cytoplasmic (Homo sapiens, UniProt O75874), sequence (O75874 whole entry): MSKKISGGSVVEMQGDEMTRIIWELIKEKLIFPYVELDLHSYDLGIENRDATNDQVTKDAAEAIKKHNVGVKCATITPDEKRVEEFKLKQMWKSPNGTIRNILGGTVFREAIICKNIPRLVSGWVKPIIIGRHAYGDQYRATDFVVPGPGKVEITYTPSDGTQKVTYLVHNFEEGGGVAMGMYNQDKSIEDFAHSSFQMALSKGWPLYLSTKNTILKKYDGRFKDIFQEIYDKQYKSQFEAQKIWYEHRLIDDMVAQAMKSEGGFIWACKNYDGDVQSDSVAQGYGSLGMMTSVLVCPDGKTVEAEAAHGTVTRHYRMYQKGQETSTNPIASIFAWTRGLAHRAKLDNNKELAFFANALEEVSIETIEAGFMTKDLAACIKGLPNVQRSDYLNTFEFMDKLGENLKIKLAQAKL

[3] = target: Isocitrate dehydrogenase [NADP], mitochondrial (Homo sapiens, UniProt P48735, R140Q); assay: Inhibition of IDH2 R140Q mutant (unknown origin) using alpha-ketoglutarate as substrate incubated in presence of NADPH by Envision multimode plate reader analysis
Isocitrate dehydrogenase [NADP], mitochondrial (Homo sapiens, UniProt P48735, R140Q), sequence (P48735 40-452 R140Q limits assumed): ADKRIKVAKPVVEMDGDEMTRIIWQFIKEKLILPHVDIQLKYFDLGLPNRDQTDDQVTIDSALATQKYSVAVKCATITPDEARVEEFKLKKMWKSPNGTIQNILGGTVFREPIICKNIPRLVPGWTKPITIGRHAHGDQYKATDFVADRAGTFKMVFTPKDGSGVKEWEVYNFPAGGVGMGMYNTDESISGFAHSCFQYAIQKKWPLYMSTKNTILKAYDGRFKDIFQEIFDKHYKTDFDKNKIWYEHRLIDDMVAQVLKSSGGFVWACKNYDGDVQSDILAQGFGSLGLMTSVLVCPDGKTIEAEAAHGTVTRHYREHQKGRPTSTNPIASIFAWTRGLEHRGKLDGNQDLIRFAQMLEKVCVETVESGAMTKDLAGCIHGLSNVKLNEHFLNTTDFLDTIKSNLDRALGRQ

[4] = target: Isocitrate dehydrogenase [NADP], mitochondrial (Homo sapiens, UniProt P48735, R172K); assay: Inhibition of IDH2 R172K mutant (unknown origin) using alpha-ketoglutarate as substrate incubated in presence of NADPH by Envision multimode plate reader analysis
Isocitrate dehydrogenase [NADP], mitochondrial (Homo sapiens, UniProt P48735, R172K), sequence (P48735 40-452 R172K limits assumed): as the sequence (P48735 40-452 R140Q limits assumed) above, with Q101R, R133K counted along it

[5] = target: T1, Isocitrate dehydrogenase [NADP], mitochondrial (Homo sapiens, UniProt P48735); assay: Inhibition of wildtype IDH2 (unknown origin) […] by Envision multimode plate reader analysis
T1 sequence (P48735 whole entry): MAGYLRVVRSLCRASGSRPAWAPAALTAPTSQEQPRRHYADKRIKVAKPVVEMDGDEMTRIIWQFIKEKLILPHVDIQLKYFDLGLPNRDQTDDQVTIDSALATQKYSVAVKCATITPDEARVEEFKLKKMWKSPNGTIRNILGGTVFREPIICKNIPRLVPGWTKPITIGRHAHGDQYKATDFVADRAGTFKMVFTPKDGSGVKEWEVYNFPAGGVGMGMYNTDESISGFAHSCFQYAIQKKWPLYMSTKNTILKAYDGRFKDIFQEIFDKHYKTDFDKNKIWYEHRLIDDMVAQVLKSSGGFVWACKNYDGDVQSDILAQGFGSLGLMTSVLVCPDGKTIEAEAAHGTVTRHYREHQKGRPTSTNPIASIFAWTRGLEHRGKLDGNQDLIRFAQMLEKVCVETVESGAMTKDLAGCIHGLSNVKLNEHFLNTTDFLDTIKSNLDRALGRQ

U-87 MG [6] = assay: Antiproliferative activity against human U-87 MG cells harboring wildtype IDH1 assessed as inhibition of cell growth incubated for 24 hrs by CCK8 assay; type: functional, cell-based, U-87MG ATCC
U-87 MG [7] = assay: Antiproliferative activity against human U-87 MG cells harboring wildtype IDH1 assessed as inhibition of cell growth incubated for 48 hrs by CCK8 assay; type: functional, cell-based, U-87MG ATCC
U-87 MG [8] = assay: Antiproliferative activity against human U-87 MG cells harboring wildtype IDH1 assessed as inhibition of cell growth incubated for 72 hrs by CCK8 assay; type: functional, cell-based, U-87MG ATCC
U-87 MG [9] = type: functional, cell-based, U-87MG ATCC; conditions: Homo sapiens, 24 h
U-87 MG [10] = type: functional, cell-based, U-87MG ATCC; conditions: Homo sapiens, 48 h
U-87 MG [11] = type: functional, cell-based, U-87MG ATCC; conditions: Homo sapiens, 72 h
[12] = Half-life in Sprague-Dawley rat at 1 mg/kg, iv measured after 24 hrs by LC-MS/MS analysis; type: ADME, organism-based; conditions: in vivo
[13] = Cmax in Sprague-Dawley rat at 1 mg/kg, iv measured after 24 hrs by LC-MS/MS analysis; type: ADME, organism-based; conditions: in vivo
[14] = AUC (0 to t) in Sprague-Dawley rat at 1 mg/kg, iv measured after 24 hrs by LC-MS/MS analysis; type: ADME, organism-based; conditions: in vivo
[15] = AUC (0 to infinity) in Sprague-Dawley rat at 1 mg/kg, iv measured after 24 hrs by LC-MS/MS analysis; type: ADME, organism-based; conditions: in vivo
[16] = Half-life in Sprague-Dawley rat at 10 mg/kg, po measured after 24 hrs by LC-MS/MS analysis; type: ADME, organism-based; conditions: in vivo
[17] = target: T2, Nicotinamide phosphoribosyltransferase (Homo sapiens, UniProt P43490); type: cell-based; conditions: U-87 MG, dose 0.5-2 µM, time 48.0 hrs
Target sequence in this assay (P43490 whole entry, looked up): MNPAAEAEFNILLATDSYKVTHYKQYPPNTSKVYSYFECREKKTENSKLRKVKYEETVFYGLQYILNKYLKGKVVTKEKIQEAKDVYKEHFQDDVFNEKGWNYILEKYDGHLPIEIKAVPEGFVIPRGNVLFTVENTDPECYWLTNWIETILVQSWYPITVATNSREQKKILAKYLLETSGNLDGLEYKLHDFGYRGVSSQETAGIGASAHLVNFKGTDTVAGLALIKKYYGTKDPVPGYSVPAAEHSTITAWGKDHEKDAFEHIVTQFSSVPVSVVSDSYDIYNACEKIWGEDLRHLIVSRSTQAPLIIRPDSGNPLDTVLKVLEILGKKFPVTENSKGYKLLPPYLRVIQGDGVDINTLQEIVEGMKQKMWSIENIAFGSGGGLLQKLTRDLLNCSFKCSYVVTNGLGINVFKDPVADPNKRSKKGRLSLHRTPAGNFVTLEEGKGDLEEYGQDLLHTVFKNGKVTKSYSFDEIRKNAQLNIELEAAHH

U-87MG ATCC [18] = assay: Effect on intracellular NADP+ level in human U-87 MG cells harboring wildtype IDH1; type: functional, cell-based
U-87MG ATCC [19] = type: functional, cell-based; conditions: Homo sapiens, dose 0.5-2 µM, time 48.0 hrs
U-87MG ATCC [20] = type: functional, cell-based; conditions: Homo sapiens, dose 0.5-2 µM, time 48.0 hrs; remark: listed apart in the source
[21] = target: T2, Nicotinamide phosphoribosyltransferase; type: cell-based; conditions: U-87 MG, dose 0.5 µM, time 6.0 hrs
Target sequence in this assay (P43490 whole entry, looked up): as above

U-87MG ATCC [22] = type: functional, cell-based; conditions: Homo sapiens, dose 0.5-2 µM, time 24.0 hrs
U-87MG ATCC [23] = type: functional, cell-based; conditions: Homo sapiens, dose 0.5-2 µM, time 24.0 hrs; remark: listed apart in the source
U-87MG ATCC [24] = type: functional, cell-based; conditions: Homo sapiens, dose 0.5-2 µM, time 24.0 hrs; remark: listed apart in the source
U-87MG ATCC [25] = type: functional, cell-based; conditions: Homo sapiens, dose 0.5-2 µM, time 24.0 hrs; remark: listed apart in the source
U-87MG ATCC [26] = type: functional, cell-based; conditions: Homo sapiens, dose 0.5-2 µM, time 24.0 hrs; remark: listed apart in the source
U-87MG ATCC [27] = type: functional, cell-based; conditions: Homo sapiens, dose 0.5-2 µM, time 24.0 hrs; remark: listed apart in the source
U-87 MG [28] = type: functional, U-87MG ATCC; conditions: Homo sapiens, time 48 hrs, read-out: Activity
U-87 MG [29] = type: functional, Homo sapiens, U-87MG ATCC; conditions: dose 2 µM; time 48 hrs
U-87 MG [30] = type: functional, Homo sapiens, U-87MG ATCC; conditions: dose 2 µM; time 48 hrs; remark: listed apart in the source
U-87 MG [31] = type: functional, Homo sapiens, U-87MG ATCC; conditions: dose 2 µM; time 48 hrs; remark: listed apart in the source
U-87 MG [32] = type: functional, U-87MG ATCC; conditions: Homo sapiens, time 48 hrs, read-out: Activity; remark: listed apart in the source
[33] = Tmax in Sprague-Dawley rat at 10 mg/kg, po measured after 24 hrs by LC-MS/MS analysis; type: ADME, organism-based; conditions: in vivo
U-87 MG [34] = type: functional, Homo sapiens, U-87MG ATCC; conditions: dose 0.5 µM; time 48 hrs
U-87 MG [35] = type: functional, Homo sapiens, U-87MG ATCC; conditions: dose 0.5 µM; time 48 hrs; remark: listed apart in the source
U-87 MG [36] = type: functional, Homo sapiens, U-87MG ATCC; conditions: dose 0.5 µM; time 48 hrs; remark: listed apart in the source
[37] = Acute toxicity in ICR mouse at 400 mg/kg, po measured for 7 days; type: organism-based; conditions: in vivo, 168 h, time 7 day
[38] = Tmax in Sprague-Dawley rat at 1 mg/kg, iv measured after 24 hrs by LC-MS/MS analysis; type: ADME, organism-based; conditions: in vivo
[39] = Clearance in Sprague-Dawley rat at 1 mg/kg, iv measured after 24 hrs by LC-MS/MS analysis; type: ADME, organism-based; conditions: in vivo
[40] = Cmax in Sprague-Dawley rat at 10 mg/kg, po measured after 24 hrs by LC-MS/MS analysis; type: ADME, organism-based; conditions: in vivo
[41] = AUC (0 to t) in Sprague-Dawley rat at 10 mg/kg, po measured after 24 hrs by LC-MS/MS analysis; type: ADME, organism-based; conditions: in vivo
[42] = AUC (0 to infinity) in Sprague-Dawley rat at 10 mg/kg, po measured after 24 hrs by LC-MS/MS analysis; type: ADME, organism-based; conditions: in vivo
[43] = Oral bioavailability in Sprague-Dawley rat at 10 mg/kg measured after 24 hrs by LC-MS/MS analysis; type: ADME, organism-based; conditions: in vivo
[44] = Permeability of compound by PAMPA-BBB assay; type: ADME; conditions: read-out: permeability
[45] = Ratio of drug concentration in ICR mouse brain to plasma at 5 mg/kg, iv measured after 24 hrs by LC-MS/MS analysis; type: ADME, organism-based; conditions: read-out: BPR
[46] = AUC in ICR mouse brain at 5 mg/kg, iv measured after 24 hrs by LC-MS/MS analysis; type: ADME, organism-based
[47] = AUC in ICR mouse plasma at 5 mg/kg, iv measured after 24 hrs by LC-MS/MS analysis; type: ADME, organism-based
U-87 MG [48] = type: functional, Homo sapiens, U-87MG ATCC; conditions: dose 10 mg/kg; route iv; time 35 day
U-87 MG [49] = type: functional, Homo sapiens, U-87MG ATCC; conditions: dose 20 mg/kg; route iv; time 35 day
U-87 MG [50] = type: functional, Homo sapiens, U-87MG ATCC; conditions: dose 40 mg/kg; route iv; time 35 day
U-87 MG [51] = type: functional, organism-based; conditions: Homo sapiens; U-87MG ATCC; dose 10-40 mg/kg, route iv, time 35.0 day
U-87 MG [52] = type: functional, cell-based; conditions: Homo sapiens; U-87MG ATCC; dose 10-40 mg/kg, route iv, time 35.0 day
U-87 MG [53] = type: functional, organism-based; conditions: Homo sapiens; U-87MG ATCC; dose 10-40 mg/kg, route iv, time 35.0 day; remark: listed apart in the source
[54] = target: Voltage-gated inwardly rectifying potassium channel KCNH2 (Homo sapiens, UniProt Q12809); assay: Inhibition of human ERG in CHO cells incubated for 2.5 mins by Qpatch electrogram analysis; type: toxicity, cell-based
Voltage-gated inwardly rectifying potassium channel KCNH2, sequence (Q12809 whole entry): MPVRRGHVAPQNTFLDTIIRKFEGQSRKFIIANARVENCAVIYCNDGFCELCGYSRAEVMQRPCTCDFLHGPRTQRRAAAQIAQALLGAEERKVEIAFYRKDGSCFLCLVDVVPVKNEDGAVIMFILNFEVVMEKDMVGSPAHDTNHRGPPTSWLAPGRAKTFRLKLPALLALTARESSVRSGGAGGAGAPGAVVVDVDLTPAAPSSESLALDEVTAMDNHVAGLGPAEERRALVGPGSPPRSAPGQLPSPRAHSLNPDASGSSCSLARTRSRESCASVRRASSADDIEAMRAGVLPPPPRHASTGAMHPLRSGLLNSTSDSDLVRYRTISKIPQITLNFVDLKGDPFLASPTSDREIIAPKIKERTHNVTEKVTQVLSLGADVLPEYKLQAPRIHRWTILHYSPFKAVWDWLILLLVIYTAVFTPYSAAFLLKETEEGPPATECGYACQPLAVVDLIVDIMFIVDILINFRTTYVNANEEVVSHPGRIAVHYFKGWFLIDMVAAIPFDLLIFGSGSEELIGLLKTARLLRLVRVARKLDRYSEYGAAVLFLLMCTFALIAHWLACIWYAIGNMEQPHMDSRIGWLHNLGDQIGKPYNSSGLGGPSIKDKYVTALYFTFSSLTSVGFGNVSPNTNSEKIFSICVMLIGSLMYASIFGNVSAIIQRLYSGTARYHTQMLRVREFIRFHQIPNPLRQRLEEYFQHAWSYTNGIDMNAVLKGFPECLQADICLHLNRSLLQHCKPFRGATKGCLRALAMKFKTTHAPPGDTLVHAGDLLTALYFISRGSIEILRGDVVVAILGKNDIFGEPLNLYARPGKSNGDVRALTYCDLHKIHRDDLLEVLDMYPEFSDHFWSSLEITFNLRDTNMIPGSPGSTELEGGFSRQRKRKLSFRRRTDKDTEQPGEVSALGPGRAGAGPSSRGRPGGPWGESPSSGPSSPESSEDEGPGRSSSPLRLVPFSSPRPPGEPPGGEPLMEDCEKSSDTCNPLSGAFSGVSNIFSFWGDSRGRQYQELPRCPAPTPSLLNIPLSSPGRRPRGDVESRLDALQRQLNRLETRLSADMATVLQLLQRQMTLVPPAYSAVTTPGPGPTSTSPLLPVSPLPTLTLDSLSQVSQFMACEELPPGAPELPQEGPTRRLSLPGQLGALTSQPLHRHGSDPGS

[55] = target: T2, Nicotinamide phosphoribosyltransferase
Target sequence in this assay (P43490 whole entry): as the sequence (P43490 whole entry, looked up) above

U-87 MG [56] = assay: cells; conditions: Homo sapiens, 48 h, read-out: Activity

Work on `C[C@H](Nc1nccc(N2C(=O)OC[C@@H]2[C@H](C)F)n1)c1ccc(-c2ccc(NC(=O)COc3cccnc3)cc2)cc1` yielded an IC50 [1] of 65.1 nM, an IC50 [2] of 8950 nM and an IC50 [3] of over 100000 nM. It also gave an IC50 [4] of over 100000 nM, an IC50 [5] of over 100000 nM and an IC50 (U-87 MG [6]) of 1260 nM. The IC50 (U-87 MG [7]) was 770 nM, the IC50 (U-87 MG [8]) was 420 nM and the IC50 (U-87 MG [9]) was 890 nM. For the same compound, the IC50 (U-87 MG [10]) was 470 nM, the IC50 (U-87 MG [11]) was 320 nM and the half-life [12] was 69.6 min. The Cmax [13] was 4070 ng/mL, the AUC(0-t) at 24 h [14] was 1930 ng·h/mL and the AUC(0-inf) [15] was 1940 ng·h/mL. The half-life [16] was 124 min, the inhibition [17] was “Dose-Dependent Effect” and the Activity (U-87MG ATCC [18]) was “inactive”. For the same compound, the Activity (U-87MG ATCC [19]) was “inactive”, the Activity (U-87MG ATCC [20]) was “Dose-Dependent Effect” and the Activity [21] was “Active”. The Activity (U-87MG ATCC [22]) was “Active”, the Activity (U-87MG ATCC [23]) was “Active” and the Activity (U-87MG ATCC [24]) was “Active”. For the same compound, the Activity (U-87MG ATCC [25]) was “Active”, the Activity (U-87MG ATCC [26]) was “Active” and the Activity (U-87MG ATCC [27]) was “Active”. For the same compound, the viability at 2 µM (U-87 MG [28]) was 34.7%, the Activity (U-87 MG [29]) was 35.4% and the Activity (U-87 MG [30]) was 25.5%. It also gave an Activity (U-87 MG [31]) of 4.51%, a viability at 0.5 µM (U-87 MG [32]) of 44.6% and a Tmax [33] of 45 min. It also gave an Activity (U-87 MG [34]) of 30.6%, an Activity (U-87 MG [35]) of 21.9% and an Activity (U-87 MG [36]) of 2.84%. For the same compound, the Activity [37] was “Non-Toxic”, the Tmax [38] was 1.98 min and the clearance [39] was 4.33 mL/min/kg. It also gave a Cmax [40] of 867 ng/mL, an AUC(0-t) at 24 h [41] of 919 ng·h/mL and an AUC(0-inf) [42] of 921 ng·h/mL. It also gave a bioavailability [43] of 4.75%, a Papp [44] of 4.07 ×10⁻⁶ cm/s and a Kp at 24 h [45] of 0.76. For the same compound, the AUC at 24 h [46] was 15600 ng·h/mL, the AUC at 24 h [47] was 20300 ng·h/mL and the MST (U-87 MG [48]) was 25.5 days. For the same compound, the MST (U-87 MG [49]) was 30.5 days, the MST (U-87 MG [50]) was 34 days and the Activity (U-87 MG [51]) was “Active”. The Activity (U-87 MG [52]) was “Dose-Dependent Effect”, the Activity (U-87 MG [53]) was “Active” and the IC50 [54] was over 40000 nM. For the same compound, the IC50 [55] was 49.2 nM and the viability at 1 µM (U-87 MG [56]) was 35.5%.
